Patent publication US7011772B2, “UV absorbing mixture with textile fiber affinity” (BASF Aktiengesellschaft, priority 2000, dated 2006)

Assays:
[1] = Photostability of dyed cotton fabric after conditioning rinse (SUNTEST exposure, K/S values); conditions: 200 ppm based on the liquor; 14 hours SUNTEST exposure under outdoor conditions; K/S at maximum of K/S spectra; higher = higher photostability
Description: Woven cotton fabric dyed with Reactive Black 5 to ⅓ standard depth of shade was treated in the conditioning rinse cycle with a commercially available formulation (Lenor® care, 1000 ppm based on the liquor) in the presence of an inventive UV absorber mixture M1, M2, M3, M4, M5, M6 or M7 (each at 200 ppm based on the liquor) in a liquor ratio of 12.5:1. After the conditioning rinse cycle, the dyed fabric was removed and tested for photostability in the dried state.
The samples were exposed in a SUNTEST® tabletop accelerated lighting unit (from Heraeus, Hanau) for 14 hours under outdoor conditions. A spectrophotometer incl. an integration sphere (“Lambda 900” from Perkin Elmer) was used to measure the reflectance spectra of dyeings before and after exposure. These reflectance spectra were converted in line with the Kubelka-Munk theory into K/S spectra (K=absorption coefficient, S=scattering coefficient). The photostabilities are evaluated with reference to the K/S values after 14 hour exposure relative to the K/S values prior to exposure (K/S in each case at the maximum of the K/S spectra). The higher the value in % reported in Table 2, the higher the photostability.

[2] = UV protection factor UPF of cotton fabric after laundry aftertreatment in final rinse bath; conditions: in Lenor care conditioner 1000 ppm, dried white cotton fabric, AS/NZS 4399:1996
Description: The UV protection factor UPF of textiles is determined in accordance with the Australian/New Zealand standard AS/NZS 4399:1996 using an in vitro method. It measures the UV transmission of the textile object. The spectral transmission can be used to determine the protection factor directly using the following equation: [formula] where • Sλ=spectral irradiation of the sun in the UV region at the wavelength λ • Eλ=spectral erythema action of the UV radiation at the wavelength λ • Tλ=spectral transmission of the textile object at the wavelength λ.
White woven cotton fabric having a basis weight of 100 g/mm^2 [sic] and a UV protection factor UPF of 4.50 was washed using a water hardness of 3 mmol/l. The laundering process was a main wash cycle at 40° C. with a commercially available laundry detergent (Ariel® Color) and a subsequent conditioning rinse. The conditioner used was a commercially available formulation (Lenor® care) in a dosage of 1000 ppm, based on the liquor. […] After the conditioning rinse cycle, the fabric was removed and its UV protection factor UPF was determined in the dried state.

CCCCC(CC)COC(=O)C(C#N)=C(c1ccccc1)c1ccccc1 (stereo not shown) [Mixture A1, 2-ethylhexyl 2-cyano-3,3-diphenylacrylate]
K/S (14 h)/K/S (0 h) × 100% [1]: 67.7% | UPF with 50 ppm ([2]; 50 ppm UV absorber based on the liquor): 8.6 | UPF with 100 ppm ([2]; 100 ppm UV absorber based on the liquor): 13.5 | UPF with 200 ppm ([2]; 200 ppm UV absorber based on the liquor): 21.1
